# Test results taken from ChEMBL document CHEMBL1136951, “5-hydroxyindole-2-carboxylic acid amides: novel histamine-3 receptor inverse agonists for the treatment of obesity” (J Med Chem, 2009).
# Tests used:
# [1] = human, microsomes, 2 µM
# [2] = physchem; conditions: octanol/water, pH 7.4
# [3] = rat, microsomes, 2 µM
# [4] = physchem
# [5] = molecular target: Histamine H3 receptor (Homo sapiens) (UniProt Q9Y5N1); conditions: CHO, 3 uM
# [6] = organism: Rattus norvegicus; assay: animal or person; conditions: Wistar, ip, read-out: INH
# [7] = in vivo; conditions: Sprague-Dawley, rat, brain/plasma, ip, 30 mg/kg
# [8] = molecular target: hERG (KCNH2) (Homo sapiens, UniProt Q12809); assay: in vitro; conditions: CHO cells expressing human ERG
# hERG (KCNH2), sequence (Q12809 whole entry): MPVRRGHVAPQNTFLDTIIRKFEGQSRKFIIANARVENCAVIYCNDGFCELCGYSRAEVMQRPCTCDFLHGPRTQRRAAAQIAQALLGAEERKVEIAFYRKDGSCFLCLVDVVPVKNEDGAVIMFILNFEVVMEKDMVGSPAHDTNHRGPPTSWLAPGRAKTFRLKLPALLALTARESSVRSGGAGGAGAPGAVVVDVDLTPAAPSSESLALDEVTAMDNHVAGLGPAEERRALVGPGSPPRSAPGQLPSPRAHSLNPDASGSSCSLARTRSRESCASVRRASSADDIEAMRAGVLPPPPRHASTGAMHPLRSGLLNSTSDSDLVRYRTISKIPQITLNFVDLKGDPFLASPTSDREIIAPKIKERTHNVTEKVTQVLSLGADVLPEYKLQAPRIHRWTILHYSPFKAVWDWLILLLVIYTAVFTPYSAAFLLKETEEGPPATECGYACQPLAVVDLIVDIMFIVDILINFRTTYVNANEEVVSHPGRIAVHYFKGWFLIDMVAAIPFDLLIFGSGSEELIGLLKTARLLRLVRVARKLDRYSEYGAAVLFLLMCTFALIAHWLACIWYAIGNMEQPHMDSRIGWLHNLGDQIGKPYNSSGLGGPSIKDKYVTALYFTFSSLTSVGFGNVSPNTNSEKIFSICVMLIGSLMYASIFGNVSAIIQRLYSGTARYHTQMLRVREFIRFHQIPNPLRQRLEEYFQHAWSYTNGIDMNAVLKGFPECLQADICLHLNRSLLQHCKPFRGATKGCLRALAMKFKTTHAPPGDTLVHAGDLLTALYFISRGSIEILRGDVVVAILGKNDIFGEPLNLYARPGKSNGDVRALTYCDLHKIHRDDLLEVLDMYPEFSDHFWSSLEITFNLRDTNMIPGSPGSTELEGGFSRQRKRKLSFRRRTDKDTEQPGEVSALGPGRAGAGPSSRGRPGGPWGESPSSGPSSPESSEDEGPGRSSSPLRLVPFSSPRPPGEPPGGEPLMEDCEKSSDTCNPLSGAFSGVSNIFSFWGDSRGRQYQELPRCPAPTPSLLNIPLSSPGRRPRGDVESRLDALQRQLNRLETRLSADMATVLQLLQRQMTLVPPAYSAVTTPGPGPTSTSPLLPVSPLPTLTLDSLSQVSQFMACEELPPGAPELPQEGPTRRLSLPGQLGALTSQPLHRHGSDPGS
# [9] = in vivo; conditions: Sprague-Dawley, rat, brain, ip, 30 mg/kg
# [10] = in vivo; conditions: Wistar, rat
# [11] = molecular target: Histamine H4 receptor (Homo sapiens) (UniProt Q9H3N8); conditions: CHO, 3 uM
# Histamine H4 receptor (Homo sapiens), sequence (Q9H3N8 whole entry): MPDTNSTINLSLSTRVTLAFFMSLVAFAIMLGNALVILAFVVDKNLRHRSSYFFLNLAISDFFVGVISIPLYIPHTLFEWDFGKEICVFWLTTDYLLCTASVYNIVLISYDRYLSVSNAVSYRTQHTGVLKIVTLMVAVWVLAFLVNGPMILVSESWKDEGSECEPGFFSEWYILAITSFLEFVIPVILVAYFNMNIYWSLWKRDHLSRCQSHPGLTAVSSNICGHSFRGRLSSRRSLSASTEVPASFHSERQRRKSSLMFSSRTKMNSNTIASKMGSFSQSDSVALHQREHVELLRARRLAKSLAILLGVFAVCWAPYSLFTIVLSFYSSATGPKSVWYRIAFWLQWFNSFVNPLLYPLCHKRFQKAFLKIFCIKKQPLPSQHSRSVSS
# [12] = organism: Rattus norvegicus; assay: animal or person; conditions: Wistar, ip, read-out: INH; remark: listed apart in the source
# [13] = molecular target: Histamine H1 receptor (Homo sapiens) (UniProt P35367); conditions: CHO, 3 uM
# Histamine H1 receptor (Homo sapiens), sequence (P35367 whole entry): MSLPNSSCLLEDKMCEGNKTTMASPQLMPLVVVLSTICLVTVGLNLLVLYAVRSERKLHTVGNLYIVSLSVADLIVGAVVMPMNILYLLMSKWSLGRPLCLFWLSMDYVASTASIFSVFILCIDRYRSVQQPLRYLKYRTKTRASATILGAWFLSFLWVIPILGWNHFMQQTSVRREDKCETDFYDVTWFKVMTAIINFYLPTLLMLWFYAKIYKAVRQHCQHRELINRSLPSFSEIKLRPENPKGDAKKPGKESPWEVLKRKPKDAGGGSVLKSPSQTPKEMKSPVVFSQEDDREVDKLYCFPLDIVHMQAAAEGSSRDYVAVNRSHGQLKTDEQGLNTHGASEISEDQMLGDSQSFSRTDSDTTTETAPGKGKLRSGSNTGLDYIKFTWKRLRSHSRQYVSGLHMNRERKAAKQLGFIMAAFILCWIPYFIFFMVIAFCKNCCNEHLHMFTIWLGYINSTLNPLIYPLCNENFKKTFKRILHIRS
# [14] = molecular target: Histamine H2 receptor (Homo sapiens) (UniProt P25021); conditions: CHO, 3 uM
# Histamine H2 receptor (Homo sapiens), sequence (P25021 whole entry): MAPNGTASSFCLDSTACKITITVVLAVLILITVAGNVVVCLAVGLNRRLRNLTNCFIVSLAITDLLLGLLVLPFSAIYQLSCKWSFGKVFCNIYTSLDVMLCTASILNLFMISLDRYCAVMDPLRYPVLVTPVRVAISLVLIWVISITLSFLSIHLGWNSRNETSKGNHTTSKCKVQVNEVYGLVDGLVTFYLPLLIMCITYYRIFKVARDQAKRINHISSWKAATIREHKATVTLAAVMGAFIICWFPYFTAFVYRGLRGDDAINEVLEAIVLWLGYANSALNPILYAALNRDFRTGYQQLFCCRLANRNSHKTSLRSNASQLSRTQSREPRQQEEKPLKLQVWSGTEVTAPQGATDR
# [15] = organism: Rattus norvegicus; assay: animal or person; conditions: Wistar, po, read-out: INH
# [16] = in vivo; conditions: Wistar, rat; remark: listed apart in the source
# [17] = organism: Rattus norvegicus; assay: animal or person; conditions: Wistar, ip, read-out: INH; remark: listed apart in the source
# [18] = in vivo; conditions: Sprague-Dawley, rat, brain, ip, 10 mg/kg
# [19] = in vivo; conditions: Sprague-Dawley, rat, brain, po, 10 mg/kg
# [20] = organism: Rattus norvegicus; assay: animal or person; conditions: Wistar, po, read-out: INH; remark: listed apart in the source
# [21] = physchem; remark: listed apart in the source
# [22] = organism: Rattus norvegicus; assay: animal or person; conditions: Wistar, ip, read-out: INH; remark: listed apart in the source
# [23] = in vivo; conditions: Wistar, rat; remark: listed apart in the source
# Histamine H3 receptor (Homo sapiens), sequence (Q9Y5N1 whole entry): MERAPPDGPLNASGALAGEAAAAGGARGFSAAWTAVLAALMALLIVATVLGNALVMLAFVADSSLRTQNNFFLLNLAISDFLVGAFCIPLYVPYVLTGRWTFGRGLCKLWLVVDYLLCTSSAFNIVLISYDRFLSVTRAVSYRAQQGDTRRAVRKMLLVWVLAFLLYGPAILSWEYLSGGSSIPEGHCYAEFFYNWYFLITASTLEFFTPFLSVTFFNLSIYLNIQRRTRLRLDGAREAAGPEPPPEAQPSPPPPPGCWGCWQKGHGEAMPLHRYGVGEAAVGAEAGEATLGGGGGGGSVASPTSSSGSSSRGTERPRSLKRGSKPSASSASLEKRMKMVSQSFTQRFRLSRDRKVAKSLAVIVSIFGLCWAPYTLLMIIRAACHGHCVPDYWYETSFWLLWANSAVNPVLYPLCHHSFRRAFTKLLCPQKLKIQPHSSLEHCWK
SMILES,clearance [1],logD [2],clearance [3],pKa [4],further results
O=C(c1cc2cc(OC3CCN(C4CC4)CC3)ccc2[nH]1)N1CCOCC1,5 µL/min/mg,1.95,347 µL/min/mg,7.7,
CC(C)N1CCC(Oc2ccc3c(c2)cc(C(=O)N2CCS(=O)(=O)CC2)n3CC(F)(F)F)CC1,1 µL/min/mg,0.35,4 µL/min/mg,9.6,
O=C(c1cc2cc(OC3CCN(C4COC4)CC3)ccc2n1CC(F)(F)F)N1CCOCC1,8 µL/min/mg,1.83,228 µL/min/mg,6.4,
CCN(c1ccc2[nH]c(C(=O)N3CCOCC3)cc2c1)C1CCN(C(C)C)CC1,,,,,inhibition [5]: 19%
CC(C)N1CCC(Oc2ccc3[nH]c(C(=O)N4CCOCC4)cc3c2)CC1,< 1 µL/min/mg,0.09,12 µL/min/mg,10,inhibition in vivo at 30 mg/kg [6]: 91%; Kp [7]: 0.3; inhibition at 10 µM [8]: 28%; concentration at 2 h [9]: 2230 ng/g; half-life [10]: 60 min
O=C(c1cc2cc(OCCCN3CCCCC3)ccc2[nH]1)N1CCOCC1,< 1 µL/min/mg,0.32,6 µL/min/mg,10,inhibition [11]: 4%; inhibition in vivo at 10 mg/kg [12]: 66%; inhibition [13]: 6%; inhibition [14]: 3%
CC(C)N1CCC(Oc2ccc3[nH]c(C(=O)N4CCCCCC4)cc3c2)CC1,10 µL/min/mg,1.75,55 µL/min/mg,9.7,inhibition in vivo at 10 mg/kg [12]: 76%
O=C(c1ccc2c(c1)cc(C(=O)N1CCOCC1)n2CC(F)(F)F)N1CCN(C2CCC2)CC1,10 µL/min/mg,1.97,16 µL/min/mg,6.8,Kp [7]: 0.3; inhibition in vivo at 10 mg/kg [15]: 93%; Vd [16]: 1.5 L/kg; inhibition at 10 µM [8]: 33%
CC(C)N1CCC(Oc2ccc3[nH]c(C(=O)N4CCCC(F)(F)C4)cc3c2)CC1,< 1 µL/min/mg,1.23,17 µL/min/mg,10,inhibition in vivo at 10 mg/kg [12]: 86%
CC(C)N1CCC(Oc2ccc3c(c2)cc(C(=O)N2CCC(F)(F)CC2)n3-c2ccc(Cl)c(Cl)c2)CC1,< 1 µL/min/mg,3.38,104 µL/min/mg,,inhibition [14]: > 30%
CC(C)(C)N1CCC(Oc2ccc3[nH]c(C(=O)N4CCOCC4)cc3c2)CC1,10 µL/min/mg,0.03,13 µL/min/mg,10,
CC(C)N1CCC(Oc2ccc3[nH]c(C(=O)N4CCC(O)C4)cc3c2)CC1 (stereo not drawn),12 µL/min/mg,-0.15,5 µL/min/mg,9.8,inhibition in vivo at 30 mg/kg [6]: 83%
O=C(c1cc2cc(OC3CCN(C4CCC4)CC3)ccc2n1CC(F)(F)F)N1CCOCC1,4 µL/min/mg,2.09,28 µL/min/mg,9.1,
CC(=O)n1c(C(=O)N2CCC(F)(F)CC2)cc2cc(OC3CCN(C(C)C)CC3)ccc21,< 1 µL/min/mg,,,,
CC(C)N1CCC(Oc2ccc3c(c2)cc(C(=O)N2CCC(F)(F)CC2)n3CC(F)(F)F)CC1,2 µL/min/mg,2.08,8 µL/min/mg,9.7,inhibition in vivo at 3 mg/kg [17]: 49%; concentration at 2 h [18]: 435 ng/g; half-life [10]: 108 min
Cc1[nH]c2ccc(OC3CCN(C(C)C)CC3)cc2c1C(=O)N1CCOCC1,< 1 µL/min/mg,-0.12,15 µL/min/mg,9.8,
CC(C)N1CCC(Oc2ccc3c(c2)cc(C(=O)N2CCC(F)(F)CC2)n3CC#N)CC1,< 1 µL/min/mg,1.13,16 µL/min/mg,9.8,
CC(C)N1CCC(Oc2ccc3c(c2)cc(C(=O)N2CCC(F)(F)CC2)n3C(C)C)CC1,4 µL/min/mg,1.67,12 µL/min/mg,9.9,concentration at 2 h [19]: 1270 ng/g; inhibition in vivo at 3 mg/kg [17]: 80%; Vd [16]: 9.2 L/kg; inhibition at 10 µM [8]: 42%; half-life [10]: 660 min
CC(C)N1CCC(Oc2cc3[nH]c(C(=O)N4CCOCC4)cc3cc2F)CC1,6 µL/min/mg,,18 µL/min/mg,9.5,
CC(C)N1CCC(Oc2ccc3cc(C(=O)N4CCOCC4)[nH]c3c2)CC1,< 1 µL/min/mg,0.31,8 µL/min/mg,9.7,inhibition in vivo at 10 mg/kg [12]: 60%
CC(C)N1CCC(Oc2ccc3c(c2)cc(C(=O)N2CCC(F)(F)CC2)n3S(=O)(=O)c2ccc(F)cc2)CC1,< 1 µL/min/mg,3.04,20 µL/min/mg,,inhibition [14]: > 30%
COC1CCN(C(=O)c2cc3cc(OC4CCN(C(C)C)CC4)ccc3[nH]2)CC1,5 µL/min/mg,0.59,20 µL/min/mg,9.9,inhibition in vivo at 30 mg/kg [6]: 70%
O=C(c1cc2cc(OC3CCN(C4CC4)CC3)ccc2n1CC(F)(F)F)N1CCOCC1,11 µL/min/mg,2.79,143 µL/min/mg,7.5,
CC(C)N1CCC(Oc2ccc3c(c2)cc(C(=O)N2CCC(F)(F)CC2)n3S(C)(=O)=O)CC1,< 1 µL/min/mg,1.31,10 µL/min/mg,9.6,inhibition in vivo at 3 mg/kg [20]: 81%; Vd [16]: 9.2 L/kg; inhibition at 10 µM [8]: 64%; half-life [10]: 360 min
CC(C)N1CCC(Nc2ccc3[nH]c(C(=O)N4CCOCC4)cc3c2)CC1,5 µL/min/mg,-0.7,9 µL/min/mg,9.9,inhibition in vivo at 30 mg/kg [6]: 99%
CC(C)N1CCC(Oc2ccc3c(c2)cc(C(=O)N2CCOCC2)n3CC(F)(F)F)CC1,< 1 µL/min/mg,1.1,13 µL/min/mg,9.7,inhibition in vivo at 10 mg/kg [12]: 87%; inhibition in vivo at 10 mg/kg [15]: 87%
CCOC(=O)c1cc2cc(C(=O)O)ccc2[nH]1,< 1 µL/min/mg,0.04,15 µL/min/mg,,
CC(C)N1CCC(Oc2ccc3[nH]c(C(=O)N4CCC(F)(F)CC4)cc3c2)CC1,5 µL/min/mg,1.2,9 µL/min/mg,9.7,solubility [21]: > 540 µg/mL; inhibition in vivo at 1 mg/kg [22]: 58%; concentration at 2 h [19]: 1690 ng/g; bioavailability [23]: 100%; inhibition at 10 µM [8]: 73%; half-life [10]: 240 min
